# From patent US7265246B2, “Indane derivates as muscarinic receptor agonists” (Eli Lilly and Company, priority 2003, dated 2007)
# Read-outs that look alike come from different tables or passages of the source.
# Test system: Male Sprague-Dawley rats
# Settings: s.c. immediately after the sampling phase, six-hour delay
structure (smiles),measurement,setting,value
"Nc1c2c(nc3ccccc13)CCCC2 [Tacrine, tacrine]",retention in the eight arm radial maze,3 mg/kg,not
same,retention in the eight arm radial maze,10 mg/kg,significantly improved retention
